The results in this text go back to PMC10180054, “Design, Synthesis and Biological Evaluation of Novel Pleuromutilin Derivatives Containing 6-Chloro-1-R-1H-pyrazolo[3,4-d]pyrimidine-4-amino Side Chain” (Molecules, 2023).

Series [1] deals with MRSA ATCC 43300. Briefly: MIC/MBC by broth dilution (CLSI). The class given is cell-based, Staphylococcus aureus. Particulars: for MIC: MRSA ATCC 43300, broth dilution, 24 h, 37 °C. The procedure, abridged: (§1)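 CLSI broth dilution used twofold compound series from 64 to 0.0625 µg/mL (stocks in water with 2.5% DMSO and 2.5% Tween-80) and a final inoculum of 5 × 10^5 CFU/mL, in triplicate. For MBC, 25 µL from wells without visible growth was plated on MH agar and cultured 24 h at 37 °C.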

Another series deals with S. aureus 144. Briefly: MIC/MBC by broth dilution (CLSI). Format: cell-based. Particulars: Staphylococcus aureus; S. aureus 144 (clinical strain). In short, it runs like this:
as §1
On the technique in general: Broth dilution looks for growth in wells or tubes with falling amounts of substance.

For a further series, the system named is S. aureus AD3. The series is described as follows: MIC/MBC by broth dilution (CLSI). The class given is cell-based. Particulars: Staphylococcus aureus; S. aureus AD3 (clinical strain). In short, it runs like this: as §1
The next series concerns S. aureus ATCC 29213. The series is described as follows: MIC/MBC by broth dilution (CLSI). Format: cell-based. Particulars: Staphylococcus aureus, ATCC29213. The procedure, abridged:
as §1

In series [2] the test system is MRSA ATCC 43300. Briefly: Constant concentration time–kill curves. Format: cell-based, Staphylococcus aureus. As for the experimental part: Time–kill kinetic assays were performed, which were used to investigate the in vitro bactericidal kinetic effect of compounds 12c, 19c, 22c and tiamulin.
Time–kill curve assays were established with the MIC value to investigate the antibacterial effect of constant drug concentration on MRSA. […] MRSA ATCC 43300 was incubated in MH broth at 37 °C for 4.5 h and diluted to 1 × 10^6 CFU/mL in MH broth. The saline control group was subjected to the same schedule but 0.9% saline water was added instead of the test compound. All the samples were incubated in an oscillating thermostatic at 37 °C, and then 100 μL of the mixture was extracted to 900 μL of sterile saline (0.9%) at 0, 3, 6, 9, 12 and 24 h, respectively. Samples were serially diluted 10-fold in sterile saline (0.9%) and inoculated onto agar plates. The colonies were counted after incubation at 37 °C for 24 h. Three independent experiments were performed according to our previous work. Time–kill curves were constructed by plotting the log10 CFU per millilitre versus time, and the change in bacterial concentration was determined.

Series [3] concerns MRSA ATCC 43300. Briefly: Post-antibiotic effect (PAE). Format: cell-based, Staphylococcus aureus. The method, then: PAE has been considered as pharmacodynamic assistance which provides a reference for the rational formulation of dosing regimen. PAE refers to the temporary suppression of bacterial growth following transient antibiotic treatment. PAE assays were conducted for compounds 12c and 22c.
PAE is calculated from growth curves on the difference in time required for the number (1 log10 CFU/mL) of drug-exposed and unexposed microbes. […] The PAE values of compounds 12c and 22c increased with increasing incubation time.
PAE of compounds 12c and 22c on MRSA ATCC 43300 was determined using MH broth according to our previous work. The final concentration of MRSA was 1 × 10^6 CFU/mL by dilution with MH broth. Compounds 12c, 22c and tiamulin were supplemented in the suspension at a final concentration of 2 × MIC and 4 × MIC, respectively. The negative control group contained untreated MRSA bacterial cells. The test tubes were incubated with a 37 °C constant temperature vibration incubator for 1 and 2 h. After incubation, the test compound was removed from the sample by diluting 1000-fold with the preheated MH broth. Next, 100 μL of suspension from each culture was 10-fold diluted in sterile saline and inoculated on MH agar plates at 0, 2, 4, 6 and 8 h after inoculation. The number of colonies was calculated after incubation at 37 °C for 24 h. The experiments were performed in triplicate.

A further series concerns 16-HBE cells. Briefly: Cytotoxicity MTT assay. Format: cell-based, human. Particulars: 1~8 μg/mL, 16 h. As for the experimental part:
(§2) The presence of compounds can influence cellular basic physiological processes, suppress proliferation and even reduce cell survival, etc. In the community, MRSA generally causes respiratory infection. Therefore, cytotoxicity was evaluated to explore the effect of compounds 12c and 22c on the viability of the respiratory tract cells 16-HBE (human bronchial epithelial cell line). RAW 264.7 (mouse peritoneal macrophage cell line) and Caco-2 (human epithelial colorectal adenocarcinoma cell line) were also used to evaluate the cytotoxicity of compounds 12c and 22c by MTT assay.
(§3) Cytotoxicity of the test compounds was assessed using the conventional MTT method. RAW 264.7 murine macrophage cells, Caco-2 cells and 16-HBE were used in this experiment. The cells were seeded into 96-well plates at a density of 1.0 × 10^5 cells per well. After 4 h at 37 °C, the cells were treated with compounds 12c and 22c at various concentrations and incubated at 37 °C for 16 h. Next, MTT (0.5 mg/mL in PBS, 100 μL/well) was added sequentially to each well in a humidified atmosphere of 95% air and 5% CO2 incubator and the incubation continued for an additional four hours. After incubation, the medium was peeled off and DMSO (150 μL/well) was added to dissolve the cells, and then the incubation was continued for 30 min. At the end of this period, the absorbance was measured at 490 nm by a microplate spectrophotometer (BIO-TEK Instruments, Winooski, VT, USA).
A general note: Formazan colour is commonly taken as a measure of viable cells.

The subject of the next series is Caco-2 cells. The series is described as follows: Cytotoxicity MTT assay. Particulars: 1~8 μg/mL, 16 h. The class given is cell-based, human. As for the experimental part:
as §2, §3

Structures are written as SMILES. Converted amounts (≈) assume the structure as drawn. “Also recorded” adds a separate entry of the source. Read-outs that look alike come from different tables or passages of the source.

A word on the MIC: it is the smallest concentration in the dilution series that meets the test's criterion for growth inhibition. By MBC is commonly meant the smallest concentration meeting the test's criterion for killing. As a reminder, the melting point is the temperature, or range, at which the solid turns liquid. For `C=C[C@]1(C)C[C@@H](OC(=O)CSc2ccc(Nc3nc(Cl)nc4c3cnn4-c3ccc(F)c(F)c3)cc2)[C@]2(C)[C@H](C)CC[C@]3(CCC(=O)[C@H]32)[C@@H](C)[C@@H]1O` [Compound 22c, 22-[4-(6-Chloro-1-(3,4-difluorophenyl)-1H-pyrazolo[3,4-d]pyrimidine-4-yl)amino-Phenylsulfanyl]-22-deoxypleuromutilin], the melting point fell in the range of 109 to 113 °C. In the series with MRSA ATCC 43300 [1], the MIC is on record as 0.25/0.25 μg/mL. For the same molecule, the MBC in the series on MRSA ATCC 43300 [1] (Staphylococcus aureus, MRSA ATCC 43300, 99.9% of the bacteria killed) was found to be 0.25 µg/mL (≈ 0.333 µM). Further, the MIC in the series on MRSA ATCC 43300 [1] (Staphylococcus aureus, read-out: MIC) came to 0.25 µg/mL (≈ 0.333 µM). The MBC/MIC ratio in the series on MRSA ATCC 43300 [1] (against MRSA) is at most 2. Besides, in the series on S. aureus 144, the MBC was 1 µg/mL (≈ 1.33 µM) and the minimal inhibitory concentration (MIC) worked out at 0.5 µg/mL (≈ 0.666 µM). In the series with S. aureus AD3, this molecule yielded an MBC of 0.25 µg/mL (≈ 0.333 µM) and an MIC of 0.125 µg/mL (≈ 0.167 µM). In the series on S. aureus ATCC 29213 (S. aureus ATCC 29213), this molecule returned an MBC of 0.5 µg/mL (≈ 0.666 µM). The molecule further gave an MIC against S. aureus ATCC 29213 (S. aureus ATCC 29213, broth dilution, 24 h, 37 °C) of 0.25 µg/mL (≈ 0.333 µM). Moreover, in the series on MRSA ATCC 43300 [2] (2 × MIC, 24 h incubation), the “MRSA killed in time–kill assay” value stood at 99.99% and the “reduction of MRSA in time–kill assay” value is reported as −4.47 log10 CFU/mL. In the series on MRSA ATCC 43300 [2] (4 × MIC), the “reduction of MRSA in time–kill assay” value is −5.79 log10 CFU/mL. In the series on MRSA ATCC 43300 [2] (time–kill curves, 1 to 32 × MIC), the “type of bactericidal kinetics” value is given as “time-dependent”. Moreover, the PAE with MRSA ATCC 43300 [3] (2 × MIC, exposure for 1 h) is reported as 0.92 h. In the series with MRSA ATCC 43300 [3] (2 × MIC, exposure for 2 h), the PAE was found to be 2.18 h. This molecule also returned a PAE with MRSA ATCC 43300 [3] (4 × MIC, exposure for 1 h) of 0.93 h. The PAE in the series on MRSA ATCC 43300 [3] (4 × MIC, exposure for 2 h) came to 2.68 h. The “effect on viability of 16-HBE cells” value with 16-HBE cells is “no significant inhibition; also recorded: did not affect the viability”. In addition, in the series with Caco-2 cells, the “effect on viability of Caco-2 cells” value is reported as “no significant inhibition; also recorded: did not affect the viability”.
